Calls of active or inactive are those of the source. The calls are words filed in the database; no cut-off is given here.
What was measured:
[1] = Selectivity index, ratio of IC50 for human fibroblasts to IC50 for human HaCaT cells
NCI-H727 [2] = experiment: Cytotoxicity against human NCI-H727 cells assessed as cell viability after 48 hrs by Hoechst 33342 staining based assay; type: functional; settings: NCI-H727, 48 h
HaCaT [3] = experiment: Cell cycle arrest in human HaCaT cells harboring […] p53 assessed as accumulation at S phase at 25 uM measured after 48 hrs by Hoechst/BrdU staining based fluorescence assay (reference value: 52.3%); type: functional
NCI-H727 [4] = experiment: Cell cycle arrest in human NCI-H727 cells assessed as accumulation at G1/S phase by Hoechst staining based fluorescence assay; type: functional
MCF7 = experiment: Induction of apoptosis in human MCF7 cells harboring wild-type p53 assessed as increase in late apoptosis at 2 times IC50 after 24 hrs by YoPro/propidium iodide/Hoechst staining based assay; type: functional, cell-based
HCT-116 [5] = experiment: Cytotoxicity against human HCT116 cells assessed as cell viability after 48 hrs by Hoechst 33342 staining based assay; type: functional; settings: HCT-116, 48 h
HCT-116 [6] = experiment: Cytotoxicity against human HCT116 cells assessed as cell survival at 50 uM after 48 hrs by Hoechst 33342 staining based assay relative to control; type: functional; settings: HCT-116, 48 h, read-out: Survival
Huh-7 [7] = experiment: Cell cycle arrest in human HuH7 cells assessed as mitotic index at 10 uM measured after 48 hrs by Hoechst staining based fluorescence assay (reference value: 2.2); type: functional
MDA-MB-231 [8] = experiment: Cell cycle arrest in human MDA-MB-231 cells harboring p53 mutant assessed as mitotic index at 10 uM measured after 48 hrs by Hoechst staining based fluorescence assay (reference value: 2.1); type: functional
Huh-7 [9] = experiment: Cytotoxicity against human HuH7 cells assessed as cell survival at 50 uM after 48 hrs by Hoechst 33342 staining based assay relative to control; type: functional; settings: Huh-7, 48 h, read-out: Survival
HCT-116 [10] = experiment: Induction of apoptosis in human HCT116 cells harboring wild-type p53 assessed as upregulation of cyclinB1 measured after 48 hrs by Hoechst staining based assay; type: functional, cell-based
Caco-2 [11] = experiment: Cytotoxicity against human Caco2 cells assessed as cell viability after 48 hrs by Hoechst 33342 staining based assay; type: functional; settings: Caco-2, 48 h
Caco-2 [12] = experiment: Cell cycle arrest in human Caco2 cells assessed as accumulation at S phase at 25 uM measured after 48 hrs by Hoechst/BrdU staining based fluorescence assay (reference value: […]); type: functional
PC-3 [13] = experiment: Cytotoxicity against human PC3 cells assessed as cell viability after 48 hrs by Hoechst 33342 staining based assay; type: functional; settings: PC-3, 48 h
Caco-2 [14] = experiment: Cytotoxicity against human Caco2 cells assessed as cell survival at 50 uM after 48 hrs by Hoechst 33342 staining based assay relative to control; type: functional; settings: Caco-2, 48 h, read-out: Survival
HaCaT [15] = experiment: Cytotoxicity against human HaCaT cells assessed as cell viability after 48 hrs by Hoechst 33342 staining based assay; type: functional
Huh-7 [16] = experiment: Cell cycle arrest in human HuH7 cells assessed as accumulation at S phase at 10 uM measured after 48 hrs by Hoechst/BrdU staining based fluorescence assay (reference value: 44%); type: functional
PC-3 [17] = experiment: Cell cycle arrest in human PC3 cells harboring p53 mutant assessed as mitotic index at 25 uM measured after 48 hrs by Hoechst staining based fluorescence assay (reference value: 2.5); type: functional
[18] = Selectivity index, ratio of IC50 for human fibroblasts to IC50 for human PC3 cells
PC-3 [19] = experiment: Induction of apoptosis in human PC3 cells harboring p53 mutant assessed as upregulation of cyclinB1 after 48 hrs by Hoechst staining based assay; type: functional, cell-based
HaCaT [20] = experiment: Cell cycle arrest in human HaCaT cells harboring […] p53 assessed as accumulation at S phase at 10 uM measured after 48 hrs by Hoechst/BrdU staining based fluorescence assay (reference value: 52.3%); type: functional
Caco-2 [21] = experiment: Cell cycle arrest in human Caco2 cells assessed as accumulation at M phase by Hoechst staining based fluorescence assay; type: functional
[22] = Selectivity index, ratio of IC50 for human fibroblasts to IC50 for human Caco2 cells
PC-3 [23] = experiment: Cytotoxicity against human PC3 cells assessed as cell survival at 50 uM after 48 hrs by Hoechst 33342 staining based assay relative to control; type: functional; settings: PC-3, 48 h, read-out: Survival
PC-3 [24] = experiment: Cell cycle arrest in human PC3 cells harboring p53 mutant assessed as mitotic index at 10 uM measured after 48 hrs by Hoechst staining based fluorescence assay (reference value: 2.5); type: functional
PC-3 [25] = experiment: Cell cycle arrest in human PC3 cells harboring p53 mutant assessed as accumulation at S phase at 25 uM measured after 48 hrs by Hoechst/BrdU staining based fluorescence assay (reference value: 40.8%); type: functional
PC-3 [26] = experiment: Induction of apoptosis in human PC3 cells harboring p53 mutant assessed as increase in cleaved caspase3 at 2 times IC50 after 48 hrs by Hoechst staining based assay; type: functional, cell-based
Fibroblast = experiment: Cytotoxicity against human fibroblasts assessed as cell viability after 48 hrs by Hoechst 33342 staining based assay
Huh-7 [27] = experiment: Cell cycle arrest in human HuH7 cells assessed as mitotic index at 25 uM measured after 48 hrs by Hoechst staining based fluorescence assay (reference value: 2.2); type: functional
Huh-7 [28] = experiment: Cytotoxicity against human HuH7 cells assessed as cell viability after 48 hrs by Hoechst 33342 staining based assay; type: functional; settings: Huh-7, 48 h
[29] = Selectivity index, ratio of IC50 for human fibroblasts to IC50 for human RL cells
MDA-MB-231 [30] = experiment: Cytotoxicity against human MDA-MB-231 cells assessed as cell survival at 50 uM after 48 hrs by Hoechst 33342 staining based assay relative to control; type: functional; settings: MDA-MB-231, 48 h, read-out: Survival
[31] = Selectivity index, ratio of IC50 for human fibroblasts to IC50 for human NCI-H727 cells
Caco-2 [32] = experiment: Cell cycle arrest in human Caco2 cells assessed as mitotic index at 10 uM measured after 48 hrs by Hoechst staining based fluorescence assay (reference value: 3.6); type: functional
HCT-116 [33] = experiment: Cell cycle arrest in human HCT116 cells assessed as accumulation at G1/S phase by Hoechst staining based fluorescence assay; type: functional
NCI-H727 [34] = experiment: Cell cycle arrest in human NCI-H727 cells harboring p53 mutant assessed as mitotic index at 10 uM measured after 48 hrs by Hoechst staining based fluorescence assay (reference value: 1.1); type: functional
[35] = Selectivity index, ratio of IC50 for human fibroblasts to IC50 for human HuH7 cells

Structure (SMILES) | IC50 (NCI-H727 [2]) [µM] | Activity (HaCaT [3]) | Activity (MCF7) | IC50 (HCT-116 [5]) [µM] | viability at 50 µM (HCT-116 [6]) [%] | Activity (MDA-MB-231 [8]) | viability at 50 µM (Huh-7 [9]) [%] | Activity (HCT-116 [10]) | IC50 (Caco-2 [11]) [µM] | Activity (Caco-2 [12]) [%] | IC50 (PC-3 [13]) [µM] | viability at 50 µM (Caco-2 [14]) [%] | IC50 (HaCaT [15]) [µM] | Activity (Huh-7 [16]) | Activity_index (PC-3 [17]) | Ratio IC50 [18] | Activity (PC-3 [19]) | Activity (HaCaT [20]) | Activity (Caco-2 [21]) | Ratio IC50 [22] | also measured
COc1cc(O)c(C(=O)/C=C/c2ccccc2OC)c(OC)c1 | 11 | 29% | Active | 9.2 | 8 | inactive | 39 | Active | 10 | 37 | 9.6 | 43 | 10.9 | inactive | 7.2 | 3.8 | Active | 49% | Active | 3.6 | Ratio IC50 [1]: 3.3; Activity (NCI-H727 [4]): Active; Activity (Huh-7 [7]): inactive; viability at 50 µM (PC-3 [23]): 32%; Activity_index (PC-3 [24]): 2.9; Activity (PC-3 [25]): 24%; Activity (PC-3 [26]): Active; IC50 (Fibroblast): > 20 µM; Activity (Huh-7 [27]): inactive; IC50 (Huh-7 [28]): > 20 µM; Ratio IC50 [29]: 3.6; viability at 50 µM (MDA-MB-231 [30]): 37%; Ratio IC50 [31]: 3.3; Activity_index (Caco-2 [32]): 6.8; Activity (HCT-116 [33]): Active; Activity_index (NCI-H727 [34]): 1
COc1cc(O)c(C(=O)/C=C/c2ccccc2SC)c(OC)c1 | 9 | 30% | Active | 10 | 1 | inactive | 38 | Active | 9.6 | 37 | 8.7 | 23 | 10.5 | 50% | 7.6 | 4.1 | Active | 51% | Active | 3.8 | Ratio IC50 [1]: 3.4; Activity (NCI-H727 [4]): Active; Activity_index (Huh-7 [7]): 2.3; Ratio IC50 [35]: 2.2; viability at 50 µM (PC-3 [23]): 35%; Activity_index (PC-3 [24]): 4.4; Activity (PC-3 [25]): 31%; Activity (PC-3 [26]): Active; IC50 (Fibroblast): > 20 µM; Activity_index (Huh-7 [27]): 5.3; IC50 (Huh-7 [28]): 16.6 µM; Ratio IC50 [29]: 4.1; viability at 50 µM (MDA-MB-231 [30]): 39%; Ratio IC50 [31]: 4; Activity_index (Caco-2 [32]): 6; Activity (HCT-116 [33]): Active; Activity_index (NCI-H727 [34]): 0.9
COc1cc(O)c(C(=O)/C=C/c2ccc(F)cc2)c(OC)c1 | > 20 | inactive | Active | 12.4 | 25 | inactive | 66 | Active | 9.2 | 30 | 13.2 | 45 | > 20 | inactive | 5.3 | >3.8 | Active | inactive | Active | >5.4 | Activity (Huh-7 [7]): inactive; viability at 50 µM (PC-3 [23]): 56%; Activity_index (PC-3 [24]): 2.9; Activity (PC-3 [25]): 34%; Activity (PC-3 [26]): Active; IC50 (Fibroblast): > 20 µM; Activity (Huh-7 [27]): inactive; IC50 (Huh-7 [28]): > 20 µM; Ratio IC50 [29]: >5.4; viability at 50 µM (MDA-MB-231 [30]): 69%; Activity_index (Caco-2 [32]): 6.3; Activity (HCT-116 [33]): Active; Activity (NCI-H727 [34]): inactive
